The results in this text go back to US9273040B2 (Merck Sharp & Dohme Corp., priority 2011, dated 2016).

The target of test [1] is T1, human Nav1.5 channels stably expressed in HEK 293 cells (Homo sapiens, UniProt Q14524).
T1 construct: expressed in transfected cells
Description: PatchXpress 7000 automated patch-clamp, sodium current. The settings on record: selectivity over Nav1.5. Format: cell-based. In short, it runs like this: (§1)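 IC50 values came from Hill-equation fits of rundown-corrected inhibition. PatchXpress recordings at 22° C held cells 20 mV negative to V0.5 inact and applied 10 Hz trains of 30 ms steps to −20 mV (Nav1.7) or an 8000 ms prepulse 7 mV positive to V0.5 inact. […]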
(In general: Patch clamp records ionic current or voltage across a cell membrane.)

For test [2], the target named is T2, human Nav1.7 channels stably expressed in HEK 293 cells (Homo sapiens, UniProt Q15858).
T2 construct: expressed in transfected cells
The description is as above. The settings on record: 22° C., read-out: potency for the Nav 1.7 sodium ion channel (as measured by PatchXpress). Format: cell-based. In outline:
as §1

Each structure is given as a SMILES string.

T1 sequence (Q14524 whole entry): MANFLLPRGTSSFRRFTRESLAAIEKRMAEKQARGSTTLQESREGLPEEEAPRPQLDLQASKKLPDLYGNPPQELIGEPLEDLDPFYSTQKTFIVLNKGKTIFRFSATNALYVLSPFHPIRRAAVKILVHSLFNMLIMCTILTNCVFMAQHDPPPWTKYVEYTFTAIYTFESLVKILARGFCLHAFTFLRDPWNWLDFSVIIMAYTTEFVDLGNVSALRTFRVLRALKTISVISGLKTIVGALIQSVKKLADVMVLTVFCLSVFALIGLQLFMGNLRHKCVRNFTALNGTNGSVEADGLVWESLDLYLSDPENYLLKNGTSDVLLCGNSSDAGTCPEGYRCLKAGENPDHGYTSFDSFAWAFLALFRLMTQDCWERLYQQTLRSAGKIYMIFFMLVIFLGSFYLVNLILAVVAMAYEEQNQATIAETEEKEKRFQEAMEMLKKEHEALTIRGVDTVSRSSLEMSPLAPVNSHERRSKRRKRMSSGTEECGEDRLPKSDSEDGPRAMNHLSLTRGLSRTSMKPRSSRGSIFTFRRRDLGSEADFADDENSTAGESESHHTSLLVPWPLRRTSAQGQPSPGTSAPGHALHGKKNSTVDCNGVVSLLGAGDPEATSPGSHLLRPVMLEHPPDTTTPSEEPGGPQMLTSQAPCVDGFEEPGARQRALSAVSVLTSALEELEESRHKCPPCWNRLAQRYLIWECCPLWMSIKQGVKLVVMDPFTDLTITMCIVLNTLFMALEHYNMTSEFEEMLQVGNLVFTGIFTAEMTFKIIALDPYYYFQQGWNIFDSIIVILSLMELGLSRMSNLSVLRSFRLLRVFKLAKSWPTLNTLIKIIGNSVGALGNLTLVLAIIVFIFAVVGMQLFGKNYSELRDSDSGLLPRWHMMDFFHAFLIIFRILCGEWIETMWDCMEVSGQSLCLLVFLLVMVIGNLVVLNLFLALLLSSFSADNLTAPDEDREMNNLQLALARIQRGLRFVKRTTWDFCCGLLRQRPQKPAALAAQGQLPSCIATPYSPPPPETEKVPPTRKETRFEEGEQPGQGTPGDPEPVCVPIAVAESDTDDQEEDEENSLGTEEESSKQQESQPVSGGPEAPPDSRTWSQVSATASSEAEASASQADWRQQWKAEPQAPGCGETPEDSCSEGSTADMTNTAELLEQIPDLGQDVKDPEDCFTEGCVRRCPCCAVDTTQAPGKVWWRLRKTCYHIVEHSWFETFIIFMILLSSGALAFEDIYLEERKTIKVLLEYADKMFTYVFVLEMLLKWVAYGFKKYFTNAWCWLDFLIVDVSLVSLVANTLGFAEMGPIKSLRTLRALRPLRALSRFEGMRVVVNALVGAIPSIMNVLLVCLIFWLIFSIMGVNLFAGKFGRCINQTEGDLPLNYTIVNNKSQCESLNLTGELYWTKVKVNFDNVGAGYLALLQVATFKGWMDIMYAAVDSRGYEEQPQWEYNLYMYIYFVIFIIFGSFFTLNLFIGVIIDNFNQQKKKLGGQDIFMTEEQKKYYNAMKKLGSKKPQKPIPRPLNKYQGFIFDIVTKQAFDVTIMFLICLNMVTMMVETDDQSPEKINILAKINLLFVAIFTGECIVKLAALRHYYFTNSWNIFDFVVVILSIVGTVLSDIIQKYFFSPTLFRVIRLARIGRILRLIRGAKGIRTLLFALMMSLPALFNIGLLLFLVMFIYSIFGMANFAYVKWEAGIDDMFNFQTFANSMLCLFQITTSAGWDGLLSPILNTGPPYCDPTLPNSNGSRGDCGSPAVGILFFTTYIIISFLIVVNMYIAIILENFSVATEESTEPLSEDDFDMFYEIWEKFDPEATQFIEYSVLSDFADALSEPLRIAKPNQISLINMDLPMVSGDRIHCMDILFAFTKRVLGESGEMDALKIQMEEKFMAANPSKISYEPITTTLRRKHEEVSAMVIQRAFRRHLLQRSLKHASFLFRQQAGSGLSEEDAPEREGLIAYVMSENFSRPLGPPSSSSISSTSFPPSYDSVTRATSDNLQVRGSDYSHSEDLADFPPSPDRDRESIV
T2 sequence (Q15858 whole entry): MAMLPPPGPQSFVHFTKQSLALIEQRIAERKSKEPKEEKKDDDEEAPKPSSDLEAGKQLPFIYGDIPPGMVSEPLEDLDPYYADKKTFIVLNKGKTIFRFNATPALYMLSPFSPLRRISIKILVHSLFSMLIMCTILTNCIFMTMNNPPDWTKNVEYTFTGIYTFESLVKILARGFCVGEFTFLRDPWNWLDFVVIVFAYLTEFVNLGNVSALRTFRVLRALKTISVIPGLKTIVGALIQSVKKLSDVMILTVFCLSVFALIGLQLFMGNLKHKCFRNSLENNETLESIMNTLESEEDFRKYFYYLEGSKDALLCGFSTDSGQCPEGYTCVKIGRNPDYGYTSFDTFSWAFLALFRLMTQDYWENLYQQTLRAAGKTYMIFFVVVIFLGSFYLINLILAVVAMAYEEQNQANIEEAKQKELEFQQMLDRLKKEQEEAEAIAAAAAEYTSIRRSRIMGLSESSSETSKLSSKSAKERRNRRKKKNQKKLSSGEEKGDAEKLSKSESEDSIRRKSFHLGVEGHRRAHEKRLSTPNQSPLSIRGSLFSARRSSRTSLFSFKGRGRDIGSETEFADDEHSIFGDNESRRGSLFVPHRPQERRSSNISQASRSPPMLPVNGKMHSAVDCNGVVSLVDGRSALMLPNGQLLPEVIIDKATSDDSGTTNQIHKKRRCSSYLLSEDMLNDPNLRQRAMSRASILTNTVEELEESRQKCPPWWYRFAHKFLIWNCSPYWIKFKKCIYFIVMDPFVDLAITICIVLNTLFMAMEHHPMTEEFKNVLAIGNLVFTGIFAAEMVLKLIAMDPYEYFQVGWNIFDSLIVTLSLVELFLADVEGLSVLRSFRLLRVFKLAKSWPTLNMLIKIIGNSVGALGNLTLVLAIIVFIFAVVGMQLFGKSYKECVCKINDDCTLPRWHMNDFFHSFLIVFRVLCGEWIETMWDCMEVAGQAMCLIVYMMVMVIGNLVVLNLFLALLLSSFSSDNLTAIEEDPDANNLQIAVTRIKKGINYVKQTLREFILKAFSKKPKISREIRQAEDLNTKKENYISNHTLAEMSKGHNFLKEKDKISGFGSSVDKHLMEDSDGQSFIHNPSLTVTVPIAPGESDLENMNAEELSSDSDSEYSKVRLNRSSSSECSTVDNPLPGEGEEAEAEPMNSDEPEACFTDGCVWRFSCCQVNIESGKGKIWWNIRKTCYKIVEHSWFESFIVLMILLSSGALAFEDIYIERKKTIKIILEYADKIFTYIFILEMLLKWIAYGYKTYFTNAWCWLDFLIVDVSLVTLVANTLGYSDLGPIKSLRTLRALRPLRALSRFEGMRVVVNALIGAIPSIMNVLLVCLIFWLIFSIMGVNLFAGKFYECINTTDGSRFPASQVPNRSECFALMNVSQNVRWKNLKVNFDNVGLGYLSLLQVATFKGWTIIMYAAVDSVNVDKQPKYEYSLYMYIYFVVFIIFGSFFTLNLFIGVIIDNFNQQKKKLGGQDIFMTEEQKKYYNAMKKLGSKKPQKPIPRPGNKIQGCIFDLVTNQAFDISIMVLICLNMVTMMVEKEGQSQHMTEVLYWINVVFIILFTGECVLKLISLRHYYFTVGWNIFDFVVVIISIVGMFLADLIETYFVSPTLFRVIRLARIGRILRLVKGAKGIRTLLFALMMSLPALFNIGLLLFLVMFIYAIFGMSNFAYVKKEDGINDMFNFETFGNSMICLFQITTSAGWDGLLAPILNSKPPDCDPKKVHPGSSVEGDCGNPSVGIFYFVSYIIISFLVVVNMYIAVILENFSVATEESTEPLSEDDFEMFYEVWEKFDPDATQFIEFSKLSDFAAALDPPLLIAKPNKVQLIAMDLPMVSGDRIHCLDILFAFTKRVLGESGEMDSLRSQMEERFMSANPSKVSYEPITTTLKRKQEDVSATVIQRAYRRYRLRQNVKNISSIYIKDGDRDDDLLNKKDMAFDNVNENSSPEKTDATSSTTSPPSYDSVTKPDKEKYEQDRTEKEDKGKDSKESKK

Turning to `Nc1ccc2c(c1)C(n1c(=O)oc3cc(S(=O)(=O)Nc4ncns4)c(F)cc31)CCC2` (stereo not shown) [Compound 39-3], the “ratio of Nav 1.5:Nav 1.7 potency, determined by PatchXpress measurement” value (shortened to “ratio of Nav 1.5:Nav 1.7 potency”) in test [1] worked out at 1196. Also, the IC50 in test [2] was 41 nM.

As to `NC1CCc2cccc(Cn3c(=O)oc4cc(S(=O)(=O)Nc5ncns5)ccc43)c2C1` (single isomer, unassigned) [Compound 23-14, (S or R)-3-[(7-amino-5,6,7,8-tetrahydronaphthalen-1-yl)methyl]-2-oxo-N-1,2,4-thiadiazol-5-yl-2,3-dihydro-1,3-benzoxazole-6-sulfonamide], the “ratio of Nav 1.5:Nav 1.7 potency” value in test [1] is 393. Besides, in test [2], the IC50 was found to be 75 nM.

Regarding `CC(c1cccc2c1CNCC2)n1c(=O)oc2cc(S(=O)(=O)Nc3ncns3)c(Cl)cc21` (racemic) [Compound 34-7, (+/−)-5-chloro-2-oxo-3-[1-(1,2,3,4-tetrahydroisoquinolin-8-yl)ethyl]-N-1,2,4-thiadiazol-5-yl-2,3-dihydro-1,3-benzoxazole-6-sulfonamide], the “ratio of Nav 1.5:Nav 1.7 potency” value in test [1] is 129. Besides, in test [2], the IC50 was 565 nM.

In the case of `C[C@H](c1ccccc1C#CCNS(C)(=O)=O)n1c(=O)oc2cc(S(=O)(=O)Nc3ncns3)c(Br)cc21` [Compound 36-4, 5-bromo-3-[(1R)-1-(2-{3-[(methylsulfonyl)amino]prop-1-yn-1-yl}phenyl)ethyl]-2-oxo-N-1,2,4-thiadiazol-5-yl-2,3-dihydro-1,3-benzoxazole-6-sulfonamide], the “ratio of Nav 1.5:Nav 1.7 potency” value in test [1] worked out at 36. Besides, in test [2], the IC50 was found to be 169 nM.

With `CC(=O)NC1CCc2cccc(Cn3c(=O)oc4cc(S(=O)(=O)Nc5ncns5)c(F)cc43)c2C1` (stereo not shown) [Compound 22-1, N-(8-((6-(N-(1,2,4-thiadiazol-5-yl)sulfamoyl)-5-fluoro-2-oxobenzo[d]oxazol-3(2H)-yl)methyl)-1,2,3,4-tetrahydronaphthalen-2-yl)acetamide], the “ratio of Nav 1.5:Nav 1.7 potency” value in test [1] was 172. Moreover, the IC50 in test [2] worked out at 175 nM.

Take `O=c1oc2cc(S(=O)(=O)Nc3nccs3)c(F)cc2n1C1CCCc2c(F)cccc21` (stereo not shown) [Compound 43-8, 5-fluoro-3-(5-fluoro-1,2,3,4-tetrahydronaphthalen-1-yl)-2-oxo-N-1,3-thiazol-2-yl-2,3-dihydro-1,3-benzoxazole-6-sulfonamide]: the “ratio of Nav 1.5:Nav 1.7 potency” value in test [1] is reported as 75. Also, in test [2], the IC50 was found to be 71 nM.

As for `C[C@H](c1ccccc1C1(O)CNC1)n1c(=O)oc2cc(S(=O)(=O)Nc3ncns3)c(F)cc21` [Compound 32-4, (R)-5-fluoro-3-(1-(2-(3-hydroxyazetidin-3-yl)phenyl)ethyl)-2-oxo-N-(1,2,4-thiadiazol-5-yl)-2,3-dihydrobenzo[d]oxazole-6-sulfonamide], the “ratio of Nav 1.5:Nav 1.7 potency” value in test [1] is 110. Besides, the IC50 in test [2] was found to be 34 nM.

As to `C[C@H](c1ccccc1C#CCN1CCC1)n1c(=O)oc2cc(S(=O)(=O)Nc3ncns3)c(F)cc21` [Compound 17-18, 3-{(1R)-1-[2-(3-azetidin-1-ylprop-1-yn-1-yl)phenyl]ethyl}-5-fluoro-2-oxo-N-1,2,4-thiadiazol-5-yl-2,3-dihydro-1,3-benzoxazole-6-sulfonamide], the “ratio of Nav 1.5:Nav 1.7 potency” value in test [1] is 1085. Moreover, the IC50 in test [2] was determined as 28 nM.

Consider `C[C@H](c1ccccc1C1=CCCNC1)n1c(=O)oc2cc(S(=O)(=O)Nc3ncns3)c(F)cc21` [Compound 16-5, 5-fluoro-2-oxo-3-{(1R)-1-[2-(1,2,5,6-tetrahydropyridin-3-yl)phenyl]ethyl}-N-1,2,4-thiadiazol-5-yl-2,3-dihydro-1,3-benzoxazole-6-sulfonamide], for which, in test [1], the “ratio of Nav 1.5:Nav 1.7 potency” value is 646. In addition, the IC50 in test [2] is 46 nM.

In the case of `O=c1oc2cc(S(=O)(=O)Nc3ncns3)c(F)cc2n1C1CCOc2ccccc21` (stereo not shown) [Compound 39-6, 3-(3,4-dihydro-2H-chromen-4-yl)-5-fluoro-2-oxo-N-1,2,4-thiadiazol-5-yl-2,3-dihydro-1,3-benzoxazole-6-sulfonamide], the “ratio of Nav 1.5:Nav 1.7 potency” value in test [1] is 110. Also, in test [2], the IC50 turned out to be 221 nM.

`CCC(O)(C#Cc1ccccc1[C@@H](C)n1c(=O)oc2cc(S(=O)(=O)Nc3ncns3)c(F)cc21)CC` [Compound 17-6, 3-{(1R)-1-[2-(3-ethyl-3-hydroxypent-1-yn-1-yl)phenyl]ethyl}-5-fluoro-2-oxo-N-1,2,4-thiadiazol-5-yl-2,3-dihydro-1,3-benzoxazole-6-sulfonamide]: the “ratio of Nav 1.5:Nav 1.7 potency” value in test [1] turned out to be 91. Moreover, the IC50 in test [2] stood at 104 nM.

Take `O=c1oc2cc(S(=O)(=O)Nc3ncns3)c(F)cc2n1C1CCCc2ccccc21` (stereo not shown) [Compound 39-10, 5-fluoro-2-oxo-3-(1,2,3,4-tetrahydronaphthalen-1-yl)-N-1,2,4-thiadiazol-5-yl-2,3-dihydro-1,3-benzoxazole-6-sulfonamide]: in test [1], the “ratio of Nav 1.5:Nav 1.7 potency” value came to 199. In test [2], the IC50 is 168 nM.

As to `C[C@H](c1ccccc1C1CNC1)n1c(=O)oc2cc(S(=O)(=O)Nc3ncns3)c(F)cc21` [Compound 31-1, (R)-3-(1-(2-(azetidin-3-yl)phenyl)ethyl)-5-fluoro-2-oxo-N-(1,2,4-thiadiazol-5-yl)-2,3-dihydrobenzo[d]oxazole-6-sulfonamide], in test [1], the “ratio of Nav 1.5:Nav 1.7 potency” value came to 603. The IC50 in test [2] is 15 nM.

For the compound `O=c1oc2cc(S(=O)(=O)Nc3ncns3)c(F)cc2n1CC1CC1c1ccccc1` (stereo not shown) [Compound 11-10, 5-fluoro-2-oxo-3-[(2-phenylcyclopropyl)methyl]-N-1,2,4-thiadiazol-5-yl-2,3-dihydro-1,3-benzoxazole-6-sulfonamide], the “ratio of Nav 1.5:Nav 1.7 potency” value in test [1] amounted to 123. Also, the IC50 in test [2] was found to be 44 nM.

For the compound `O=c1oc2cc(S(=O)(=O)Nc3ncns3)c(F)cc2n1Cc1cccc2c1CC(O)CC2` (stereo not shown) [Compound 21-1, 5-fluoro-3-((7-hydroxy-5,6,7,8-tetrahydronaphthalen-1-yl)methyl)-2-oxo-N-(1,2,4-thiadiazol-5-yl)-2,3-dihydrobenzo[d]oxazole-6-sulfonamide], the “ratio of Nav 1.5:Nav 1.7 potency” value in test [1] worked out at 113. Moreover, the IC50 in test [2] was determined as 121 nM.

In the case of `O=c1oc2cc(S(=O)(=O)Nc3ncns3)c(F)cc2n1[C@H]1CC2(CCC2)Oc2ccc(F)cc21` [Compound 39-17, 5-fluoro-3-[(4S)-6-fluoro-3,4-dihydrospiro[chromene-2,1′-cyclobutan]-4-yl]-2-oxo-N-1,2,4-thiadiazol-5-yl-2,3-dihydro-1,3-benzoxazole-6-sulfonamide], the “ratio of Nav 1.5:Nav 1.7 potency” value in test [1] worked out at 115. In test [2], the IC50 is 53 nM.

Regarding `CNC1CCc2cccc(Cn3c(=O)oc4cc(S(=O)(=O)Nc5ncns5)ccc43)c2C1` (racemic) [Compound 23-18, (+/−)-3-{[7-(methylamino)-5,6,7,8-tetrahydronaphthalen-1-yl]methyl}-2-oxo-N-1,2,4-thiadiazol-5-yl-2,3-dihydro-1,3-benzoxazole-6-sulfonamide], the “ratio of Nav 1.5:Nav 1.7 potency” value in test [1] is given as 642. The IC50 in test [2] was determined as 47 nM.

As to `C[C@@H](c1cccc2cncn12)n1c(=O)oc2cc(S(=O)(=O)Nc3ncns3)c(F)cc21` [Compound 15-4, 5-fluoro-3-[(1S)-1-imidazo[1,5-a]pyridin-5-ylethyl]-2-oxo-N-1,2,4-thiadiazol-5-yl-2,3-dihydro-1,3-benzoxazole-6-sulfonamide], in test [1], the “ratio of Nav 1.5:Nav 1.7 potency” value worked out at 60. Also, in test [2], the IC50 came out at 235 nM.

In the case of `C[C@H](c1ccccc1C#CC1(N)CC1)n1c(=O)oc2cc(S(=O)(=O)Nc3ncns3)c(F)cc21` [Compound 17-1, (R)-3-(1-(2-((1-aminocyclopropyl)ethynyl)phenyl)ethyl)-5-fluoro-2-oxo-N-(1,2,4-thiadiazol-5-yl)-2,3-dihydrobenzo[d]oxazole-6-sulfonamide], the “ratio of Nav 1.5:Nav 1.7 potency” value in test [1] is given as 313. Also, the IC50 in test [2] turned out to be 96 nM.

In the case of `C[C@H](c1ccccc1I)n1c(=O)oc2cc(S(=O)(=O)Nc3ncns3)c(F)cc21` [Compound 16-3, (R)-5-Fluoro-3-(1-(2-iodophenyl)ethyl)-2-oxo-N-(1,2,4-thiadiazol-5-yl)-2,3-dihydrobenzo[d]oxazole-6-sulfonamide], in test [1], the “ratio of Nav 1.5:Nav 1.7 potency” value was found to be 272. Further, the IC50 in test [2] worked out at 69 nM.

As to `C[C@H](c1ccccc1CN1CCCC1)n1c(=O)oc2cc(S(=O)(=O)Nc3ncns3)c(F)cc21` [Compound 18-2, (R)-5-fluoro-2-oxo-3-(1-(2-(pyrrolidin-1-ylmethyl)phenyl)ethyl)-N-(1,2,4-thiadiazol-5-yl)-2,3-dihydrobenzo[d]oxazole-6-sulfonamide], the “ratio of Nav 1.5:Nav 1.7 potency” value in test [1] came to 446. The IC50 in test [2] turned out to be 24 nM.

Turning to `C[C@H](c1ccccc1CN1CCC(F)(F)C1)n1c(=O)oc2cc(S(=O)(=O)Nc3ncns3)c(F)cc21` [Compound 18-3, 3-[(1R)-1-{2-[(3,3-difluoropyrrolidin-1-yl)methyl]phenyl}ethyl]-5-fluoro-2-oxo-N-1,2,4-thiadiazol-5-yl-2,3-dihydro-1,3-benzoxazole-6-sulfonamide], the “ratio of Nav 1.5:Nav 1.7 potency” value in test [1] came to 15. For the same compound, the IC50 in test [2] is 768 nM.

Consider `O=c1oc2cc(S(=O)(=O)Nc3ncns3)c(F)cc2n1Cc1cccc2c1CC(NCCO)CC2` (racemic) [Compound 23-22, (+/−)-5-fluoro-3-({7-[(2-hydroxyethyl)amino]-5,6,7,8-tetrahydronaphthalen-1-yl}methyl)-2-oxo-N-1,2,4-thiadiazol-5-yl-2,3-dihydro-1,3-benzoxazole-6-sulfonamide], for which the “ratio of Nav 1.5:Nav 1.7 potency” value in test [1] stood at 221. In test [2], the IC50 stood at 26 nM.
